# Source: patent publication US20260317277A1, “ARYLALKYLAMINE COMPOUND, AND PREPARATION METHOD THEREFOR AND USE THEREOF” (RENHE YIKANG GROUP CO., LTD., priority 2024, published 2026)
# How the values were obtained:
# [1] = Pharmacokinetic study in SD rats; assay type: in vivo, Male Sprague-Dawley (SD) rats; conditions: male SD rats, oral gavage; Evocalcet = 100
# Procedure: Animal Information: Male Sprague-Dawley (SD) rats, aged 7-8 weeks, were used. Each group consisted of 3-5 rats.
# Dosing Information: The rats were fasted for more than 12 hours prior to administration. A single dose was administered via oral gavage.
# Blood Sampling Time Points: Blood samples were collected from the tail vein before administration and at 0.25, 0.5, 1, 2, 4, 6, 8, and 24 hours post-administration. A volume of 100 μL of blood was collected at each time point.
# Sample Processing and Storage: The blood samples were transferred into 1.5 mL microcentrifuge tubes, with 50 μL per tube (two tubes per sample). Centrifugation was completed within 2 hours. Whole blood samples were kept on ice prior to centrifugation. Centrifugation was performed at 4000 rpm, 2-8° C., for 10 minutes. After collecting the supernatant, it was stored at −80° C. or below if not analyzed immediately.
# Column: An InfinityLab Poroshell 120 SB-C18 column (2.1×100 mm, 2.7 μm) was used. Column Temperature: The temperature was maintained at 30° C. Flow Rate: The flow rate was set at 0.3 mL/min. Run Time: The total run time was 9.5 minutes. Post-run Time: A post-run time of 2 minutes was applied. Injection Volume: An injection volume of 2 μL was used. Mobile Phase: A mixture of methanol and 0.1% formic acid was employed as the mobile phase. Gradient Elution: Gradient elution was performed according to the table below.
# b) the Mass Spectrometry Conditions were Set as Follows: […]
# Preparation of Standard Solutions: Appropriate volumes of Evocalcet, Compound 2, and Compound 3 stock solutions were precisely measured and diluted with 50% methanol to prepare standard solutions with concentrations of 80, 200, 1000, 5000, 10000, 20000, and 40000 ng/mL.
# Preparation of Internal Standard (Clenbuterol Hydrochloride) Solution: 10 mg of clenbuterol hydrochloride was accurately weighed and transferred into a 10 mL volumetric flask. […] An appropriate volume of the stock solution was precisely measured and diluted with methanol to prepare a 2000 ng/mL internal standard working solution. […]
# [2] = Review Report on Evocalcet Tablets 1 mg and 2 mg, March 2018; cited from earlier work
Structure (SMILES),Relative bioavailability (%) [1] [%],adverse reactions [2]
"Cc1cc(CC(=O)O)ccc1N1CC[C@H](N[C@H](C)c2cccc3ccccc23)C1 [Compound 3, 2-(3-methyl-4-((S)-3-(((R)-1-(naphthalen-1-yl)ethyl)amino)pyrrolidin-1-yl)phenyl)acetic Acid]",144,–
"C[C@@H](N[C@H]1CCN(c2ccc(CC(=O)O)cc2F)C1)c1cccc2ccccc12 [Compound 2, 2-(3-fluoro-4-((S)-3-(((R)-1-(naphthalen-1-yl)ethyl)amino)pyrrolidin-1-yl)phenyl)acetic Acid]",136,–
C[C@@H](N[C@H]1CCN(c2ccc(CC(=O)O)cc2)C1)c1cccc2ccccc12 [Evocalcet],100,"hypocalcemia, vomiting, nausea, chills, QT prolongation, mood disturbances, cardiac arrhythmia, hypotension, and cramps"
